Measured values as given in patent US9365576B2, “Pyrrolopyrrolidinone compounds” (Novartis AG, priority 2012, dated 2016).

These compounds were tested against human MDM2 protein (amino acids 2-188) (Homo sapiens (Human), UniProt Q00987) (assay: TR-FRET assay, p53-MDM2 Assay 2 (modified)). Conditions: TR-FRET; 0.1 nM MDM2, 0.1 nM Europium labeled streptavidin, Tecan genios Pro reader; read-out: IC50 p53-MDM2 Assay 2.
Type: binding
How it was run: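 IC50 values were curve-fitted from the time-resolved 665/620 nm emission ratio after 340 nm excitation. The assay combined 0.625 nM europium-streptavidin donor with 1.25 nM C-terminally biotinylated MDM2 2–188 (15 min, RT), followed by 15 min with 10 nM Cy5-labeled p53 18–26 acceptor peptide.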

Sequence of human MDM2 protein (amino acids 2-188) (Q00987 2-188): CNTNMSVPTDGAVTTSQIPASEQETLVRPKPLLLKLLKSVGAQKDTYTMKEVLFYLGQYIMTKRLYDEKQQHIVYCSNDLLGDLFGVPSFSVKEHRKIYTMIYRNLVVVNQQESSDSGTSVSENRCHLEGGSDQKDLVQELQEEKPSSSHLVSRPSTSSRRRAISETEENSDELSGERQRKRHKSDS

SMILES	IC50 [pM]
COc1ncc(-c2cc3c(n2C(C)C)C(c2ccc(Cl)cc2)N(c2cc(C)cn(C)c2=O)C3=O)c(OC)n1 (stereo not shown) [Example 239, 6-(4-Chlorophenyl-1)-2-(2,4-dimethoxypyrimidin-5-yl)-5-(1,5-dimethyl-2-oxo-1,2-dihydropyridin-3-yl)-1-isopropyl-5,6-dihydropyrrolo[3,4-b]pyrrol-4(1H)-one]	1160
COc1nc(N(C)C)ncc1-c1cc2c(n1C(C)C)C(c1ccc(Cl)cc1)N(C1CN(C)C(=O)N(C)C1)C2=O (stereo not shown) [Example 159, 6-(4-Chloro-phenyl)-2-(2-dimethylamino-4-methoxy-pyrimidin-5-yl)-5-(1,3-dimethyl-2-oxo-hexahydro-pyrimidin-5-yl)-1-isopropyl-5,6-dihydro-1H-pyrrolo[3,4-b]pyrrol-4-one]	161
COc1cn(C)c(=O)cc1-c1cc2c(n1C(C)C)C(c1ccc(Cl)cc1)N(c1cc(C)nn1C)C2=O (stereo not shown) [Example 178, 6-(4-Chloro-phenyl)-5-(2,5-dimethyl-2H-pyrazol-3-yl)-1-isopropyl-2-(5-methoxy-1-methyl-2-oxo-1,2-dihydro-pyridin-4-yl)-5,6-dihydro-1H-pyrrolo[3,4-b]pyrrol-4-one]	1070
COc1nc(N(C)C)ncc1-c1cc2c(n1C(C)C)C(c1ccc(C#N)cc1)N(c1cc(Cl)cnc1OC)C2=O (stereo not shown) [Example 207, 4-[5-[5-Chloro-2-methoxy-pyridin-3-yl)-2-(2-dimethylamino-4-methoxy-pyrimidin-5-yl)-1-isopropyl-4-oxo-1,4,5,6-tetrahydro-pyrrolo[3,4-b]pyrrol-6-yl]-benzonitrile]	185
COc1ncc(-c2cc3c(n2C(C)C)C(c2ccc(Cl)c(F)c2)N(c2cc(Cl)c[nH]c2=O)C3=O)c(OC)n1 (stereo not shown) [Example 202, 6-(4-Chloro-3-fluoro-phenyl)-5-(5-chloro-2-oxo-1,2-dihydro-pyridin-3-yl)-2-(2,4-dimethoxy-pyrimidin-5-yl)-1-isopropyl-5,6-dihydro-1H-pyrrolo[3,4-b]pyrrol-4-one]	201
COc1ncc(-c2cc3c(n2C(C)C)C(c2ccc(C#N)cc2)N(c2cc(C)nn2C)C3=O)c(OC)n1 (stereo not shown) [Example 179, 4-[2-(2,4-Dimethoxy-pyrimidin-5-yl)-5-(2,5-dimethyl-2H-pyrazol-3-yl)-1-isopropyl-4-oxo-1,4,5,6-tetrahydro-pyrrolo[3,4-b]pyrrol-6-yl]-benzonitrile]	3460
COc1ncc(-c2cc3c(n2C(C)C)C(c2ccc(C#N)cc2)N(c2cc(Cl)ccc2C)C3=O)c(OC)n1 (stereo not shown) [Example 44, 4-[5-(5-Chloro-2-methyl-phenyl)-2-(2,4-dimethoxy-pyrimidin-5-yl)-1-isopropyl-4-oxo-1,4,5,6-tetrahydro-pyrrolo[3,4-b]pyrrol-6-yl]-benzonitrile]	167
CNc1ncc(-c2cc3c(n2C(C)C)C(c2ccc(C#N)cc2)N(c2cc(Cl)c[nH]c2=O)C3=O)c(OC)n1 (stereo not shown) [Example 128, 4-[5-(5-Chloro-2-oxo-1,2-dihydro-pyridin-3-yl)-1-isopropyl-2-(4-methoxy-2-methylamino-pyrimidin-5-yl)-4-oxo-1,4,5,6-tetrahydro-pyrrolo[3,4-b]pyrrol-6-yl]-benzonitrile]	527
COc1ncc(-c2cc3c(n2C(C)C)C(c2ccc(Cl)cc2)N(C2CCNCC2)C3=O)c(OC)n1 (stereo not shown) [Example 106, 6-(4-Chloro-phenyl)-2-(2,4-dimethoxy-pyrimidin-5-yl)-1-isopropyl-5-piperidin-4-yl-5,6-dihydro-1H-pyrrolo[3,4-b]pyrrol-4-one]	904000
CCOC(=O)c1c2c(n(C(C)C)c1-c1cnc(OC)nc1OC)C(c1ccc(Cl)cc1)N(c1cc(Cl)c(=O)n(C)c1)C2=O (stereo not shown) [Example 220, 5-(5-Chloro-1-methyl-6-oxo-1,6-dihydro-pyridin-3-yl)-6-(4-chloro-phenyl)-2-(2,4-dimethoxy-pyrimidin-5-yl)-1-isopropyl-4-oxo-1,4,5,6-tetrahydro-pyrrolo[3,4-b]pyrrole-3-carboxylic acid ethyl ester]	134
COc1ncc(-c2cc3c(n2C(C)C)[C@@H](c2ccc(C#N)cc2)N(c2cc(Cl)cn(C)c2=O)C3=O)c(OC)n1 [Example 216, 4-[(R)-5-(5-Chloro-1-methyl-2-oxo-1,2-dihydro-pyridin-3-yl)-2-(2,4-dimethoxy-pyrimidin-5-yl)-1-isopropyl-4-oxo-1,4,5,6-tetrahydro-pyrrolo[3,4-b]pyrrol-6-yl]-benzonitrile]	883000
COc1ncc(-c2cc3c(n2C(C)C)[C@@H](c2ccc(C#N)c(F)c2)N(c2cc(Cl)c(=O)n(C)c2)C3=O)c(OC)n1 [Example 238, (R)-4-(5-(5-Chloro-1-methyl-6-oxo-1,6-dihydropyridin-3-yl)-2-(2,4-dimethoxypyrimidin-5-yl)-1-isopropyl-4-oxo-1,4,5,6-tetrahydropyrrolo[3,4-b]pyrrol-6-yl)-2-fluorobenzonitrile]	126000
COc1nc(N(C)C)ncc1-c1cc2c(n1C(C)C)C(c1ccc(Cl)cc1)N([C@H]1CC[C@H](O)CC1)C2=O (stereo partly drawn) [Example 69, 6-(4-Chloro-phenyl)-2-(2-dimethylamino-4-methoxy-pyrimidin-5-yl)-5-(trans-4-hydroxy-cyclohexyl)-1-isopropyl-5,6-dihydro-1H-pyrrolo[3,4-b]pyrrol-4-one]	777
COc1ncc(-c2cc3c(n2C(C)C)C(c2ccc(C#N)c(F)c2)N(c2cc(Cl)cn(C)c2=O)C3=O)c(OC)n1 (stereo not shown) [Example 198, 4-[5-(5-Chloro-1-methyl-2-oxo-1,2-dihydro-pyridin-3-yl)-2-(2,4-dimethoxy-pyrimidin-5-yl)-1-isopropyl-4-oxo-1,4,5,6-tetrahydro-pyrrolo[3,4-b]pyrrol-6-yl]-2-fluoro-benzonitrile]	691
COc1ncc(-c2cc3c(n2C(C)C)[C@H](c2ccc(C#N)cc2)N(c2cc(Cl)c(=O)n(C)c2)C3=O)c(OC)n1 [Example 186, 4-[(S)-5-(5-Chloro-1-methyl-6-oxo-1,6-dihydro-pyridin-3-yl)-2-(2,4-dimethoxy-pyrimidin-5-yl)-1-isopropyl-4-oxo-1,4,5,6-tetrahydro-pyrrolo[3,4-b]pyrrol-6-yl]-benzonitrile]	108
COc1ncc(-c2cc3c(n2C(C)C)C(c2ccc(Cl)cn2)N(c2cc(Cl)cn(C)c2=O)C3=O)c(OC)n1 (stereo not shown) [Example 213, 5-(5-Chloro-1-methyl-2-oxo-1,2-dihydro-pyridin-3-yl)-6-(5-chloro-pyridin-2-yl)-2-(2,4-dimethoxy-pyrimidin-5-yl)-1-isopropyl-5,6-dihydro-1H-pyrrolo[3,4-b]pyrrol-4-one]	14200

Next, values leading:

IC50 [pM]	SMILES
150	COc1ccc(C(=O)N2CCOCC2)cc1-c1cc2c(n1C(C)C)C(c1ccc(Cl)cc1)N(c1cc(Cl)c(=O)n(C)c1)C2=O (stereo not shown) [Example 47, 5-(5-Chloro-1-methyl-6-oxo-1,6-dihydro-pyridin-3-yl)-6-(4-chloro-phenyl)-1-isopropyl-2-[2-methoxy-5-(morpholine-4-carbonyl)-phenyl]-5,6-dihydro-1H-pyrrolo[3,4-B]pyrrol-4-one]
41900	COc1ccc(CC(=O)O)cc1-c1cc2c(n1C(C)C)[C@@H](c1ccc(Cl)cc1)N(c1cc(Cl)ccc1C)C2=O [Example 92, {3-[(R)-5-(5-Chloro-2-methyl-phenyl)-6-(4-chloro-phenyl)-1-isopropyl-4-oxo-1,4,5,6-tetrahydro-pyrrolo[3,4-b]pyrrol-2-yl]-4-methoxy-phenyl}-acetic acid]
163	COc1ccccc1-c1c(C#N)c2c(n1C(C)C)C(c1ccc(Cl)cc1)N(c1cc(Cl)ccc1C)C2=O (stereo not shown) [Example 59, 5-(5-Chloro-2-methyl-phenyl)-6-(4-chloro-phenyl)-1-isopropyl-2-(2-methoxy-phenyl)-4-oxo-1,4,5,6-tetrahydro-pyrrolo[3,4-b]pyrrole-3-carbonitrile]
95	CNC(=O)c1ccc(OC)c(-c2cc3c(n2C(C)C)[C@H](c2ccc(Cl)cc2)N(c2cc(Cl)ccc2C)C3=O)c1 [Example 18, 3-[(S)-5-(5-Chloro-2-methyl-phenyl)-6-(4-chloro-phenyl)-1-isopropyl-4-oxo-1,4,5,6-tetrahydro-pyrrolo[3,4-b]pyrrol-2-yl]-4-methoxy-N-methyl-benzamide]
287	COc1ccc(C(=O)N2CCOCC2)cc1-c1cc2c(n1C(C)C)C(c1ccc(Cl)cc1)N(c1ccc(F)c(Cl)c1)C2=O (stereo not shown) [Example 55, 5-(3-Chloro-4-fluoro-phenyl)-6-(4-chloro-phenyl)-1-isopropyl-2-[2-methoxy-5-(morpholine-4-carbonyl)-phenyl]-5,6-dihydro-1H-pyrrolo[3,4-b]pyrrol-4-one]
225	COc1nc(N(C)C)ncc1-c1cc2c(n1C(C)C)C(c1ccc(Cl)cc1)N(c1cc(Cl)ccc1C)C2=O (stereo not shown) [Example 27, 5-(5-Chloro-2-methyl-phenyl)-6-(4-chloro-phenyl)-2-(2-dimethylamino-4-methoxy-pyrimidin-5-yl)-1-isopropyl-5,6-dihydro-1H-pyrrolo[3,4-b]pyrrol-4-one]
1950	COc1ccccc1-c1cc2c(n1C(C)C)C(c1ccc(Cl)cc1)N(c1cc(Cl)ccc1C#N)C2=O (stereo not shown) [Example 96, 4-Chloro-2-[6-(4-chloro-phenyl)-1-isopropyl-2-(2-methoxy-phenyl)-4-oxo-4,6-dihydro-1H-pyrrolo[3,4-b]pyrrol-5-yl]-benzonitrile]
216	COc1cccnc1-c1cc2c(n1C(C)C)C(c1ccc(Cl)cc1)N(c1cc(Cl)ccc1C)C2=O (stereo not shown) [Example 113, 5-(5-Chloro-2-methyl-phenyl)-6-(4-chloro-phenyl)-1-isopropyl-2-(3-methoxy-pyridin-2-yl)-5,6-dihydro-1H-pyrrolo[3,4-b]pyrrol-4-one]
6210	COc1ccc(C(=O)O)cc1-c1cc2c(n1C(C)C)[C@@H](c1ccc(Cl)cc1)N(c1cc(Cl)ccc1C)C2=O [Example 90, 3-[(R)-5-(5-Chloro-2-methyl-phenyl)-6-(4-chloro-phenyl)-1-isopropyl-4-oxo-1,4,5,6-tetrahydro-pyrrolo[3,4-b]pyrrol-2-yl]-4-methoxy-benzoic acid]
